Measured values from PMC5635026, “Homo-PROTACs: bivalent small-molecule dimerizers of the VHL E3 ubiquitin ligase to induce self-degradation” (Nature Communications, 2017).
Where “and” joins values, the source holds several entries; their conditions need not be identical. Equal entries are not always repeated.

Columns and labels:
Alsin (ALS2) = test: TMT MS proteomics in HeLa cells, ALS2 abundance; assay type: cell-based, Homo sapiens; settings: 1 µM, 10 h, two replicates
Method: (§1) MS proteomics. Sample preparation. HeLa cells were seeded at 5 × 10^6 on a 10 cm plate 16 h before treatment. […] Cells were incubated at 37 °C and 5% CO2 for 10 h before harvesting. Cells were placed on ice and medium was removed and cells were washed twice with cold PBS. Cells were lysed in 0.5 ml of 100 mM Tris pH 8.0, 4% (w/v) SDS supplemented with protease inhibitor cocktail (Roche). The lysate was pulse sonicated briefly and then centrifuged at 17,000 × g for 15 min at 4 °C. The supernatant fraction of cell extract was snap-frozen in liquid nitrogen and stored in −80 °C freezer. Further sample processing, digestion, desalting, labeling and fractionation were performed as previously described.
(§2) nLC-MS/MS analysis. The TMT 10plex fractions were first analyzed as previously described. Briefly, the TMT 10plex fractions were analyzed sequentially on a Q Exactive HF Hybrid Quadrupole-Orbitrap Mass Spectrometer (Thermo Scientific) coupled to an UltiMate 3000 RSLCnano UHPLC system (Thermo Scientific) and EasySpray column (75 μm × 50 cm, PepMap RSLC C18 column, 2 μm, 100 Å, Thermo Scientific). The MS2 isolation window was set to 0.4 Da and the resolution set at 120,000. MS2 resolution was set at 60,000. The AGC targets for MS1 and MS2 were set at 3e^6 ions and 1e5 ions, respectively. The normalized collision energy was set at 32%. […] After the first analysis, the TMT labeled fractions were re-analyzed on the Q-Exactive HF using the same instrument settings and a target list generated from a theoretical trypsin digest of VHL. […] After the second analysis, two fractions were further analyzed using a targeted SIM/ddMS2 method on the Q-Exactive HF. […]
(§3) Peptide and protein identification. All the raw MS data files from the three analyses were merged and searched against the Uniprot-sprot-Trembl-Human-Canonical database by Maxquant software 1.5.3.30 for protein identification and TMT reporter ion quantitation. […] Quantified proteins were filtered if the absolute fold-change difference between the two DMSO replicates was ≥ 1.5.

[1] = system: Protein-glutamine gamma-glutamyltransferase E (TGM3); test: TMT MS proteomics in HeLa cells, TGM3 abundance; assay type: cell-based, Homo sapiens; settings: 1 µM, 10 h, two replicates
Method: as §1, §2, §3

[2] = system: Leucine-rich repeat-containing protein 42 (LRRC42); test: TMT MS proteomics in HeLa cells, LRRC42 abundance; assay type: cell-based, Homo sapiens; settings: 1 µM, 10 h, two replicates
Method: as §1, §2, §3

pVHL19 = pVHL19 (Homo sapiens, UniProt P40337); test: Isothermal titration calorimetry (ITC) against VCB complex with short VHL isoform (V19CB); assay type: binding; parameters: made in house; settings: for ΔG / ΔH / −TΔS / Kd / n: 25 °C; for ΔG / ΔH / −TΔS / α: pVHL19; for Kd / n: pVHL19 (V19CB); for n: stoichiometry of binding; for α: avidity / cooperativity compared to VH032, ITC
Method: Protein expression and purification. Human proteins VHL (UniProt accession number: P40337), ElonginC (Q15369), and ElonginB (Q15370) were used for all protein expression. The short-isoform-containing VCB complex (V19CB) was expressed, purified and stored as described previously. For expression of the long-isoform-containing VCB complex (V30CB), N-terminally His6-tagged VHL (1–213), ElonginC (17–112) and ElonginB (1–104) were co-expressed in Escherichia coli BL21(DE3) at 20 °C for 18 h using 0.5 mM isopropyl β-D-1-thiogalactopyranoside (IPTG). E. coli cells were resuspended in binding buffer (50 mM HEPES, pH 8.0, 500 mM NaCl, 10 mM imidazole and 5 mM β-mercaptoethanol), lysed using a pressure cell homogenizer (Stansted Fluid Power), and lysate clarified by centrifugation. The supernatant was loaded onto a HisTrap FF affinity column (GE Healthcare) equilibrated with binding buffer, and bound protein was eluted using an imidazole gradient. The His6 tag was removed using thrombin protease (Sigma), and the untagged complex was dialyzed into binding buffer. V30CB was then loaded onto the HisTrap FF column a second time, allowing impurities to bind as the complex eluted without binding. The flow-through was dialyzed using a low-salt buffer (20 mM HEPES, pH 8.0, 25 mM NaCl and 1 mM DTT) and then loaded onto a Resource Q anion exchange column (GE Healthcare); bound protein was eluted across a linear NaCl gradient. V30CB was then additionally purified by size-exclusion chromatography using a Superdex-75 16/600 column (GE Healthcare) equilibrated with 20 mM HEPES, pH 7.5, 100 mM sodium chloride and 1 mM TCEP. All chromatography purification steps were performed using Äkta FPLC purification systems (GE Healthcare).
Isothermal titration calorimetry (ITC). Titrations were performed on an ITC200 micro-calorimeter (GE Healthcare). […] The final DMSO concentration was 0.15% v/v. VCB protein experiments were carried out in a buffer containing 20 mM Bis-tris propane, 150 mM NaCl, 1 mM TCEP, 0.15% v/v DMSO, pH 7.4. The titrations consisted of 19 injections of 2 µL compounds solution (150 µM, in the syringe) at a rate of 0.5 µl s^−1 at 120 s time intervals into the VCB protein solution (20 µM, in the cell). An initial injection of compound solution (0.4 µL) was made and discarded during data analysis. All experiments were performed at 25 °C, whilst stirring the syringe at 600 rpm. The data were fitted to a single binding site model to obtain the stoichiometry n, the dissociation constant K d and the enthalpy of binding ΔH using the Microcal LLC ITC200 Origin software provided by the manufacturer.

HeLa cells = test: Isobaric tagging (TMT) MS proteomics in HeLa cells, proteome-wide degradation; assay type: cell-based, Human; settings: 1 µM for 10 h, compared to DMSO or VHL inhibitor treatment
Method: as §1, §2, §3

Sequence of pVHL19 (P40337 54-213): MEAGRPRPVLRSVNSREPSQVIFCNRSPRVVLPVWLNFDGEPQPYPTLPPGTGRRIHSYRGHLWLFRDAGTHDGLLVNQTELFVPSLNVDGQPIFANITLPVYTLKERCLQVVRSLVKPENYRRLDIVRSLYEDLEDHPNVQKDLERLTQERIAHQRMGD
Sequence of pVHL19 (Q15369 17-112 partner limits assumed): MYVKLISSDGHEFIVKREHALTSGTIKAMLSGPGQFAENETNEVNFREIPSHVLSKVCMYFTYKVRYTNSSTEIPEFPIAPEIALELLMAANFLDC
Sequence of pVHL19 (Q15370 1-104 partner limits assumed): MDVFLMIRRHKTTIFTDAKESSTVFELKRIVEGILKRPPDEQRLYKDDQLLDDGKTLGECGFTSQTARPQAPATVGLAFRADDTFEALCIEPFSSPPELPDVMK

Row | ΔG (pVHL19; ITC) | ΔH (pVHL19; ITC) | −TΔS (pVHL19; ITC) | Kd (pVHL19; ITC) [nM] | n (pVHL19; ITC) | α (pVHL19) | avidity (cooperativity α) compared to VH032 (pVHL19; ITC, VCB) [fold] | Compound | average normalized ratio to DMSO, ALS2 (Alsin (ALS2)) | average normalized ratio to DMSO, TGM3 [1] | average normalized ratio to DMSO, LRRC42 [2] | proteins depleted amongst 6,450 detected proteins (HeLa cells)
1 | –10.3 ± 0.2 kcal mol^−1 | –6.9 ± 0.3 kcal mol^−1 | –3.5 ± 0.5 kcal mol^−1 | 41 ± 15 | 0.98 ± 0.09 | 4 | – | Cc1ncsc1-c1ccc(CNC(=O)[C@@H]2C[C@@H](O)CN2C(=O)[C@@H](NC(=O)COCCOCCOCCOCC(=O)N[C@H](C(=O)N2C[C@H](O)C[C@H]2C(=O)NCc2ccc(-c3scnc3C)cc2)C(C)(C)C)C(C)(C)C)cc1 [CM09, N ^1 ,N ^14-bis((S)-1-((2S,4R)-4-hydroxy-2-((4-(4-methylthiazol-5-yl)benzyl)carbamoyl)pyrrolidin-1-yl)-3,3-dimethyl-1-oxobutan-2-yl)-3,6,9,12-tetraoxatetradecanediamide] | 0.98 | 1.74 | 2.15 | no proteins other than Cul2 were substantially depleted
2 | –10.2 ± 0.1 kcal mol^−1 | –9.4 ± 0.1 kcal mol^−1 | –0.8 ± 0.2 kcal mol^−1 | 32 ± 5 | 0.73 ± 0.01 | 6 | – | Cc1ncsc1-c1ccc(CNC(=O)[C@@H]2C[C@@H](O)CN2C(=O)[C@@H](NC(=O)COCCOCCOCCOCCOCC(=O)N[C@H](C(=O)N2C[C@H](O)C[C@H]2C(=O)NCc2ccc(-c3scnc3C)cc2)C(C)(C)C)C(C)(C)C)cc1 [CM10, N ^1 ,N ^17-bis((S)-1-((2S,4R)-4-hydroxy-2-((4-(4-methylthiazol-5-yl)benzyl)carbamoyl)pyrrolidin-1-yl)-3,3-dimethyl-1-oxobutan-2-yl)-3,6,9,12,15-pentaoxaheptadecanediamide] | 1.00 | 0.99 | 0.64 | no proteins other than Cul2 were substantially depleted

Row | Compound | ΔG (pVHL19; ITC) | ΔH (pVHL19; ITC) | −TΔS (pVHL19; ITC) | Kd (pVHL19; ITC) [nM] | n (pVHL19; ITC) | α (pVHL19) | avidity (cooperativity α) compared to VH032 (pVHL19; ITC, VCB) [fold] | average normalized ratio to DMSO, ALS2 (Alsin (ALS2)) | average normalized ratio to DMSO, TGM3 [1] | average normalized ratio to DMSO, LRRC42 [2] | proteins depleted amongst 6,450 detected proteins (HeLa cells)
3 | Cc1ncsc1-c1ccc(CNC(=O)[C@@H]2C[C@@H](O)CN2C(=O)[C@@H](NC(=O)COCCOCCOCCOCCOCCOCC(=O)N[C@H](C(=O)N2C[C@H](O)C[C@H]2C(=O)NCc2ccc(-c3scnc3C)cc2)C(C)(C)C)C(C)(C)C)cc1 [CM11, N ^1 ,N ^20-bis((S)-1-((2S,4R)-4-hydroxy-2-((4-(4-methylthiazol-5-yl)benzyl)carbamoyl)pyrrolidin-1-yl)-3,3-dimethyl-1-oxobutan-2-yl)-3,6,9,12,15,18-hexaoxaicosanediamide] | –10.9 ± 0.1 kcal mol^−1 | – | 1.4 kcal/mol and 1.4 ± 0.8 kcal/mol | 11 ± 2 | 0.6 ± 0.01 | 18 | > 18 | 0.98 | 0.72 | 0.60 | no proteins other than Cul2 were substantially depleted
